Results reported in ChEMBL document CHEMBL1154456, “CoMFA analysis of dual/multiple PPAR activators” (Eur J Med Chem, 2008).

Experiments:
[1] = target: T1, Peroxisome proliferator-activated receptor delta (Homo sapiens) (UniProt Q03181); test: Agonist activity at human PPARdelta expressed in african green monkey CV1 cells co-transfected with Gal4 assessed as reporter activity by transient transactivation assay; assay type: functional, cell-based; parameters: concentration or dose not given beside the values; conditions: CV-1
T1 sequence (whole entry): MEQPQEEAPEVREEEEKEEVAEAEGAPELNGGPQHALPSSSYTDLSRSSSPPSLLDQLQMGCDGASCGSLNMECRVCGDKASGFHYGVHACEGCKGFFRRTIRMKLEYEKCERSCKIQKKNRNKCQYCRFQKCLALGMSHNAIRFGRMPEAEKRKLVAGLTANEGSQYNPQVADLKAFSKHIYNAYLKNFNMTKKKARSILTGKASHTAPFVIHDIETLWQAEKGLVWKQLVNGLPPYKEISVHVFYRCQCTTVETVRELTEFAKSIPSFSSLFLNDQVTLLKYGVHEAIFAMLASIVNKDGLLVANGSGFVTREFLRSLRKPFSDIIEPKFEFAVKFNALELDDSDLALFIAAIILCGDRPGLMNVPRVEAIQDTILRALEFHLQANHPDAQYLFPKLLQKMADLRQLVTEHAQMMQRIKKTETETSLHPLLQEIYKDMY

[2] = target: T2, Peroxisome proliferator-activated receptor gamma (Homo sapiens, UniProt P37231); test: Agonist activity at human PPARgamma expressed in african green monkey CV1 cells co-transfected with Gal4 assessed as reporter activity by transient transactivation assay; assay type: functional, cell-based, CV-1
T2 sequence (P37231 whole entry): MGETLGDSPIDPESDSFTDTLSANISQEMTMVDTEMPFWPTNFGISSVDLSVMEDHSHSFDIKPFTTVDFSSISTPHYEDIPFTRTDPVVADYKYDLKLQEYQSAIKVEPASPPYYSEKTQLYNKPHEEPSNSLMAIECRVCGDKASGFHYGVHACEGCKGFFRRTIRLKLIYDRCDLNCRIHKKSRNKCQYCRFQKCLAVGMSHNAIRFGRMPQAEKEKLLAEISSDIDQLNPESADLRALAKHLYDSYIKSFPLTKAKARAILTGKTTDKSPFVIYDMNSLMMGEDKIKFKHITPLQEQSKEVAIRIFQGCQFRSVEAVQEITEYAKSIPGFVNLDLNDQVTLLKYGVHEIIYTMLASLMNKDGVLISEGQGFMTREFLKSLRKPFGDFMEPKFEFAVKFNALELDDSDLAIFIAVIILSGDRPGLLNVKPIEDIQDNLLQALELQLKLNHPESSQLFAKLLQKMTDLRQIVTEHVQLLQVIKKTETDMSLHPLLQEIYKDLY

Row | Activity [1] [%] | EC50 [2] [µM] | SMILES
1 | < 40 |  | CC(C)OC(Cc1ccc(OCc2noc(C3CCCCC3)n2)cc1)C(=O)O (stereo unspecified)
2 | 40 |  | CC(C)OC(Cc1ccc(OCCc2noc(-c3ccc(Cl)cc3)n2)cc1)C(=O)O (stereo unspecified)
3 | < 40 |  | CC(C)OC(Cc1ccc(OCCc2noc(-c3ccc(F)cc3)n2)cc1)C(=O)O (stereo unspecified)
4 |  | 0.16 | CC(C)OC(Cc1ccc(OCCc2noc(-c3ccccc3C(F)(F)F)n2)cc1)C(=O)O (stereo unspecified)
5 | < 40 |  | CC(C)OC(Cc1ccc(OCCc2noc(-c3ccccc3)n2)cc1)C(=O)O (stereo unspecified)
6 | < 40 |  | CC(C)OC(Cc1ccc(OCCc2noc(-c3cc(C(F)(F)F)cc(C(F)(F)F)c3)n2)cc1)C(=O)O (stereo unspecified)
